pIC50: −log10 of the molar value.
Key:
[1] = molecular target: T1, RAC-alpha serine/threonine-protein kinase [139-480,S378A,S381A,T450D,S473D] (Homo sapiens, UniProt P31749, S378A/S381A/S473D/T450D); assay: Akt Kinase Assay
T1 construct: 139-480
Protocol: (§1) The kinase assay uses His-Akt1 and a biotinylated peptide as substrate. The biotinylated peptides were immobilized on streptavidin-coated FLASH plates. After reaction, the 33P-phosphopeptide captured on the FLASH plates was measured with a TopCount Packard Instruments […] (Packard Instruments, Boston, MA).

[2] = molecular target: cAMP-dependent protein kinase catalytic subunit alpha (Bos taurus, UniProt P00517); assay: PKA/PKC Kinase Assay
Protocol: as §1, with “purified recombinant enzyme” for “His-Akt1”, “MA). IC50s were calculated using the sigmoidal curve fit with the Assay Explorer software (MDL, Los Angeles, CA).” for “MA).”

T1 sequence (P31749 139-480 S378A/S381A/T450D/S473D): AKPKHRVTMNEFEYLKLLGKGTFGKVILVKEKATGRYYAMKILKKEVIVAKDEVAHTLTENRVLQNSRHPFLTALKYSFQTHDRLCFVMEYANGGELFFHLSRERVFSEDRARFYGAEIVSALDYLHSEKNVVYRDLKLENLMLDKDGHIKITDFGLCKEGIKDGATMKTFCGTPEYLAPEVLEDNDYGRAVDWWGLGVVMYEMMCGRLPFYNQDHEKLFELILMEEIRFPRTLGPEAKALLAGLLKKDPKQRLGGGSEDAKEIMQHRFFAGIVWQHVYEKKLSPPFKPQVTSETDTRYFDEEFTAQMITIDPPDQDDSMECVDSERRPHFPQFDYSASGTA

Structure (SMILES) | pIC50 [1] | also measured
Cc1n[nH]c2ccc(-c3cncc(OC[C@@H](N)Cc4c[nH]c5ccccc45)c3)cc12 [5-{5-[(2S)-2-amino-3-(1H-indol-3-yl)propoxy]pyridin-3-yl}-3-methyl-1H-indazole] | – | pIC50 ([1]; pH 7.5, 22 °C): 9.80; pIC50 ([2]; pH 7.5, 22 °C): 8.22
Cc1n[nH]c2ccc(-c3cncc(OC[C@@H](N)Cc4ccc(Br)cc4)c3)cc12 [5-{5-[(2S)-2-amino-3-(4-bromophenyl)propoxy]pyridin-3-yl}-3-methyl-1H-indazole] | 8.30 | pIC50 [2]: 7.82
Cc1n[nH]c2ccc(-c3cncc(OC[C@@H](N)Cc4cccc(OCC5CCCCC5)c4)c3)cc12 [5-{5-[(2S)-2-amino-3-[3-(cyclohexylmethoxy)phenyl]propoxy]pyridin-3-yl}-3-methyl-1H-indazole] | – | pIC50 [2]: < 5.52
Cc1n[nH]c2ccc(-c3cncc(OC[C@@H](N)Cc4cccc(OCCC5CCNCC5)c4)c3)cc12 [5-{5-[(2S)-2-amino-3-{3-[2-(piperidin-4-yl)ethoxy]phenyl}propoxy]pyridin-3-yl}-3-methyl-1H-indazole] | 6.54 | –
Cc1n[nH]c2ccc(-c3cncc(OC[C@@H](N)Cc4cccc(OCC5CCN(C)CC5)c4)c3)cc12 [5-{5-[(2S)-2-amino-3-{3-[(1-methylpiperidin-4-yl)methoxy]phenyl}propoxy]pyridin-3-yl}-3-methyl-1H-indazole] | 7.11 | –
Cc1n[nH]c2cnc(-c3cncc(OC[C@@H](N)Cc4cccc(F)c4F)c3)cc12 [(2S)-1-(2,3-difluorophenyl)-3-{[5-(3-methyl-1H-pyrazolo[3,4-c]pyridin-5-yl)pyridin-3-yl]oxy}propan-2-amine] | 8.30 | –
Cc1n[nH]c2ccc(-c3cncc(OC[C@@H](N)Cc4c(F)cc(F)cc4F)c3)cc12 [(2S)-1-(2,4,6-trifluorophenyl)-3-{[5-(3-methyl-1H-indazol-5-yl)pyridin-3-yl]oxy}propan-2-amine] | – | pIC50 ([1]; pH 7.5, 22 °C): 7.51
Cc1cc(C)c(C[C@H](N)COc2cncc(-c3ccc4[nH]nc(C)c4c3)c2)c(C)c1 [(2S)-1-(2,4,6-trimethylphenyl)-3-{[5-(3-methyl-1H-indazol-5-yl)pyridin-3-yl]oxy}propan-2-amine] | 7.41 | –
Cc1n[nH]c2ccc(-c3cncc(OC[C@@H](N)Cc4ccc(F)cc4F)c3)cc12 [(2S)-1-(2,4-difluorophenyl)-3-{[5-(3-methyl-1H-indazol-5-yl)pyridin-3-yl]oxy}propan-2-amine] | – | pIC50 ([1]; pH 7.5, 22 °C): 7.68
Cc1n[nH]c2ccc(-c3cncc(OC[C@@H](N)Cc4c(F)cc(F)cc4Br)c3)cc12 [(2S)-1-(2-bromo-4,6-difluorophenyl)-3-{[5-(3-methyl-1H-indazol-5-yl)pyridin-3-yl]oxy}propan-2-amine] | 7.31 | –
Cc1n[nH]c2ccc(-c3cncc(OC[C@@H](N)Cc4ccccc4Br)c3)cc12 [(2S)-1-(2-bromophenyl)-3-{[5-(3-methyl-1H-indazol-5-yl)pyridin-3-yl]oxy}propan-2-amine] | 7.64 | –
Cc1n[nH]c2ccc(-c3cncc(OC[C@@H](N)Cc4ccc(Cl)c(Cl)c4)c3)cc12 [(2S)-1-(3,4-dichlorophenyl)-3-{[5-(3-methyl-1H-indazol-5-yl)pyridin-3-yl]oxy}propan-2-amine] | 8.74 | –
Cc1n[nH]c2ccc(-c3cncc(OC[C@@H](N)Cc4cc(Cl)cc(Cl)c4)c3)cc12 [(2S)-1-(3,5-dichlorophenyl)-3-{[5-(3-methyl-1H-indazol-5-yl)pyridin-3-yl]oxy}propan-2-amine] | 7.68 | –
Cc1n[nH]c2ccc(-c3cncc(OC[C@@H](N)Cc4cccc(Br)c4)c3)cc12 [(2S)-1-(3-bromophenyl)-3-{[5-(3-methyl-1H-indazol-5-yl)pyridin-3-yl]oxy}propan-2-amine] | 8.68 | –
Cc1n[nH]c2ccc(-c3cncc(OC[C@@H](N)Cc4ccc(F)c(Cl)c4)c3)cc12 [(2S)-1-(3-chloro-4-fluorophenyl)-3-{[5-(3-methyl-1H-indazol-5-yl)pyridin-3-yl]oxy}propan-2-amine] | 8.51 | –
Cc1n[nH]c2ccc(-c3cncc(OC[C@@H](N)Cc4cccc(Cl)c4)c3)cc12 [(2S)-1-(3-chlorophenyl)-3-{[5-(3-methyl-1H-indazol-5-yl)pyridin-3-yl]oxy}propan-2-amine] | 8.23 | –
Cc1cc(C[C@H](N)COc2cncc(-c3ccc4[nH]nc(C)c4c3)c2)ccc1F [(2S)-1-(3-methyl-4-fluorophenyl)-3-{[5-(3-methyl-1H-indazol-5-yl)pyridin-3-yl]oxy}propan-2-amine] | 7.96 | –
Cc1n[nH]c2ccc(-c3cncc(OC[C@@H](N)Cc4ccc(Cl)cc4)c3)cc12 [(2S)-1-(4-chlorophenyl)-3-{[5-(3-methyl-1H-indazol-5-yl)pyridin-3-yl]oxy}propan-2-amine] | 7.96 | –
COc1ccc(F)cc1C[C@H](N)COc1cncc(-c2ccc3[nH]nc(C)c3c2)c1 [(2S)-1-(5-fluoro-2-methoxyphenyl)-3-{[5-(3-methyl-1H-indazol-5-yl)pyridin-3-yl]oxy}propan-2-amine] | 8.11 | –
Cc1n[nH]c2ccc(-c3cncc(OC[C@@H](N)Cc4cc(F)cc(C(F)(F)F)c4)c3)cc12 [(2S)-1-[5-fluoro-3-(trifluoromethyl)phenyl]-3-{[5-(3-methyl-1H-indazol-5-yl)pyridin-3-yl]oxy}propan-2-amine] | 7.88 | –
N[C@H](COc1cncc(-c2cc3cn[nH]c3cn2)c1)Cc1cccc(C(F)(F)F)c1 [(2S)-1-{[5-(1H-pyrazolo[3,4-c]pyridin-5-yl)pyridin-3-yl]oxy}-3-[3-(trifluoromethyl)phenyl]propan-2-amine] | 8.14 | –
N[C@H](COc1cncc(-c2cc3c(Cl)n[nH]c3cn2)c1)Cc1cccc(C(F)(F)F)c1 [(2S)-1-{[5-(3-chloro-1H-pyrazolo[3,4-c]pyridin-5-yl)pyridin-3-yl]oxy}-3-[3-(trifluoromethyl)phenyl]propan-2-amine] | 8.54 | –
Cc1n[nH]c2ccc(-c3cncc(OC[C@@H](N)Cc4cccc(C(F)(F)F)c4)c3)cc12 [(2S)-1-{[5-(3-methyl-1H-indazol-5-yl)pyridin-3-yl]oxy}-3-[3-(trifluoromethyl)phenyl]propan-2-amine] | 8.92 | –
Cc1n[nH]c2ccc(-c3cncc(OC[C@@H](N)Cc4ccc(OC(F)(F)F)cc4)c3)cc12 [(2S)-1-{[5-(3-methyl-1H-indazol-5-yl)pyridin-3-yl]oxy}-3-[4-(trifluoromethoxy)phenyl]propan-2-amine] | 7.69 | –
Cc1n[nH]c2ccc(-c3cncc(OC[C@@H](N)Cc4ccc(C(F)(F)F)cc4)c3)cc12 [(2S)-1-{[5-(3-methyl-1H-indazol-5-yl)pyridin-3-yl]oxy}-3-[4-(trifluoromethyl)phenyl]propan-2-amine] | 7.74 | –
N[C@H](COc1cncc(-c2ccc3c(c2)/C(=C\c2ccco2)C(=O)N3)c1)Cc1ccccc1 [(3E)-5-{5-[(2S)-2-amino-3-phenylpropoxy]pyridin-3-yl}-3-(furan-2-ylmethylidene)-2,3-dihydro-1H-indol-2-one] | – | pIC50 ([1]; pH 7.5, 22 °C): 8.85
N[C@H](COc1cncc(-c2ccc3c(c2)/C(=C/c2ccc[nH]2)C(=O)N3)c1)Cc1ccccc1 [(3Z)-5-{5-[(2S)-2-amino-3-phenylpropoxy]pyridin-3-yl}-3-(1H-pyrrol-2-ylmethylidene)-2,3-dihydro-1H-indol-2-one] | – | pIC50 ([1]; pH 7.5, 22 °C): 7.80
Cc1n[nH]c2ccc(-c3cncc(OC[C@@H](N)Cc4ccccc4)c3)cc12 [Biochemistry 469551 Compound 11] | – | pIC50 ([2]; pH 7.5, 22 °C): 7.80
